The source of these data is PMC6365485 (British Journal of Pharmacology, 2019).

The target of assay [1] is T1, human recombinant DP1 receptor (Homo sapiens, UniProt Q13258).
T1 sequence (Q13258 1-359): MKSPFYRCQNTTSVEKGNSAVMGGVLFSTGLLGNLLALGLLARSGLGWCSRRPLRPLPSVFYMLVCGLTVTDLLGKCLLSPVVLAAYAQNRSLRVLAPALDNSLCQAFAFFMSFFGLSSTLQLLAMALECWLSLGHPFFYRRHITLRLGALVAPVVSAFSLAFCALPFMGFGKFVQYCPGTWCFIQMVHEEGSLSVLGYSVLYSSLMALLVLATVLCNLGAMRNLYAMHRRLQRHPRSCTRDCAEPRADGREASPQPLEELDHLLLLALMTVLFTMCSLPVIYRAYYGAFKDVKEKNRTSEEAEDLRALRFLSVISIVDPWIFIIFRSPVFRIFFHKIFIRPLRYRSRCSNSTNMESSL
Nature of the assay: [3H]PGD2 displacement, membranes. It counts as binding.

The target of assay [2] is T2, human recombinant EP1 receptor (Homo sapiens, UniProt P34995).
T2 sequence (P34995 1-402): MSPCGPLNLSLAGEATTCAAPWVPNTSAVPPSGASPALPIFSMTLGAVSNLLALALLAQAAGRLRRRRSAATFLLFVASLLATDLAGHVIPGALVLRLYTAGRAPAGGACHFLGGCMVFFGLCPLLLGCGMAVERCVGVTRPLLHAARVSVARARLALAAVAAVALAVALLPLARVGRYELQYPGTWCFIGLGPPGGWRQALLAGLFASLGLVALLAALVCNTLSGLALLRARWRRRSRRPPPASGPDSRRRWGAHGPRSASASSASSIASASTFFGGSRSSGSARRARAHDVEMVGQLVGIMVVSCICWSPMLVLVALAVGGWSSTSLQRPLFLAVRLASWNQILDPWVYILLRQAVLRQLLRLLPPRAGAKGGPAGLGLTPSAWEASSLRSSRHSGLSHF
Nature of the assay: [3H]PGE2 displacement, membranes. It counts as binding.

A word on the Ki: it is the equilibrium dissociation constant of an inhibitor or competing ligand from its target. As to `CCCCC[C@H](O)/C=C/[C@H]1C(=O)C[C@H](O)[C@@H]1C/C=C\CCCC(=O)O` [PGD2], the Ki in assay [1] is 2.51 nM.
For `CCCCC[C@H](O)/C=C/[C@H]1[C@H](O)CC(=O)[C@@H]1C/C=C\CCCC(=O)O` [PGE2], the Ki in assay [2] was 50.1 nM.
